Among the data in publication PMC7400437, “Synthesis and Evaluation of the Antibacterial Activities of 13-Substituted Berberine Derivatives” (Antibiotics, 2020) are MIC values, retold here.

Molecules are shown by their SMILES. Read-outs that look alike come from different tables or passages of the source. Bounds are passed on as bounds.

The subject of one test is C. perfringens. Briefly: microbe, parasite or virus in culture. Type of test: cell-based, Clostridium perfringens (ATCC 13124). As to conditions: Clostridium perfringens, read-out: MIC C. perfringens.
The test system of the next test is E. coli. Briefly: MIC, antimicrobial activity assay. It counts as cell-based, Escherichia coli (ATCC 8739). To be noted: Escherichia coli.
A further test concerns L. lactis. In words: MIC, antimicrobial activity assay. Type of test: cell-based, Lactococcus lactis (DSM 20481). To be noted: Lactococcus lactis; Table 4, Gram-positive.
The mark [1] stands for this setting: Table 1 first screening, read-out: Minimal Inhibitory Concentration (MIC) E. coli.
Where [2] appears, read: Table 4, Gram-negative, read-out: MIC E. coli.

Turning to `COc1cc(C(=O)Cc2c3[n+](cc4c(OC)c(OC)ccc24)CCc2cc4c(cc2-3)OCO4)cc(OC)c1OC(=O)c1ccccc1` [Compound 16, 4-[2-(Berberin-13-yl)acetyl]-2,6-dimethoxyphenyl Benzoate], the MIC with C. perfringens was 25 µM; with E. coli (setting [1]) it was more than 100 µM; in the test on E. coli (setting [2]) it was more than 100 µM; in the test with L. lactis, 6.25 to 12.5 µM.

For `COc1ccc(C(=O)/C=C/c2ccc(Cc3c4[n+](cc5c(OC)c(OC)ccc35)CCc3cc5c(cc3-4)OCO5)cc2)c(O)c1` [Compound 25, (2E)-3-{4-[(Berberin-13-yl)methyl]phenyl}-1-(2-hydroxy-4-methoxyphenyl)prop-2-en-1-one], the MIC is 25 µM with C. perfringens, more than 100 µM in the test on E. coli (setting [1]), more than 100 µM in the test with E. coli (setting [2]) and 1.5 to 3.12 µM in the test on L. lactis.
